{"source": "PubChem BioAssay (NCI)", "test_in_all_cases": "NCI-60 cell line screen, 48 h", "key": {"SK-MEL-28 melanoma": {"tested_on": "SK-MEL-28 melanoma"}, "NCI-H226 lung": {"tested_on": "NCI-H226 lung"}, "RXF 393 renal": {"tested_on": "RXF 393 renal"}, "HOP-92 NSCLC": {"tested_on": "HOP-92 NSCLC"}, "MALME-3M melanoma": {"tested_on": "MALME-3M melanoma"}, "MOLT-4 leukemia": {"tested_on": "MOLT-4 leukemia"}, "OVCAR-3 ovarian": {"tested_on": "OVCAR-3 ovarian"}, "A498 renal": {"tested_on": "A498 renal"}, "UACC-257 melanoma": {"tested_on": "UACC-257 melanoma"}, "HT29 colon": {"tested_on": "HT29 colon"}, "ACHN renal": {"tested_on": "ACHN renal"}, "HCT-15 colon": {"tested_on": "HCT-15 colon"}, "SNB-19 CNS": {"tested_on": "SNB-19 CNS"}, "NCI-H460 lung": {"tested_on": "NCI-H460 lung"}, "MDA-MB-435": {"tested_on": "MDA-MB-435"}, "KM12 colon": {"tested_on": "KM12 colon"}, "SF-539 CNS": {"tested_on": "SF-539 CNS"}, "EKVX NSCLC": {"tested_on": "EKVX NSCLC"}, "COLO 205 colon": {"tested_on": "COLO 205 colon"}, "HS 578T breast": {"tested_on": "HS 578T breast"}, "A549 NSCLC": {"tested_on": "A549 NSCLC"}, "T-47D breast": {"tested_on": "T-47D breast"}, "PC-3 prostate": {"tested_on": "PC-3 prostate"}, "DU-145 prostate": {"tested_on": "DU-145 prostate"}, "LOX IMVI melanoma": {"tested_on": "LOX IMVI melanoma"}, "SW-620 colon": {"tested_on": "SW-620 colon"}, "TK-10 renal": {"tested_on": "TK-10 renal"}, "MCF7 breast": {"tested_on": "MCF7 breast"}, "OVCAR-4 ovarian": {"tested_on": "OVCAR-4 ovarian"}, "SF-268 CNS": {"tested_on": "SF-268 CNS"}, "786-0 renal": {"tested_on": "786-0 renal"}, "OVCAR-8 ovarian": {"tested_on": "OVCAR-8 ovarian"}, "BT-549 breast": {"tested_on": "BT-549 breast"}, "RPMI-8226 leukemia": {"tested_on": "RPMI-8226 leukemia"}, "HCT-116 colon": {"tested_on": "HCT-116 colon"}, "K-562 leukemia": {"tested_on": "K-562 leukemia"}, "IGROV1 ovarian": {"tested_on": "IGROV1 ovarian"}, "HL-60(TB) leukemia": {"tested_on": "HL-60(TB) leukemia"}, "U251 CNS": {"tested_on": "U251 CNS"}, "UACC-62 melanoma": {"tested_on": "UACC-62 melanoma"}, "NCI-H522 lung": {"tested_on": "NCI-H522 lung"}, "NCI/ADR-RES ovarian": {"tested_on": "NCI/ADR-RES ovarian"}, "MDA-MB-231 breast": {"tested_on": "MDA-MB-231 breast"}, "NCI-H23 lung": {"tested_on": "NCI-H23 lung"}, "SR leukemia": {"tested_on": "SR leukemia"}, "HOP-62 NSCLC": {"tested_on": "HOP-62 NSCLC"}, "SK-MEL-5 melanoma": {"tested_on": "SK-MEL-5 melanoma"}, "SNB-75 CNS": {"tested_on": "SNB-75 CNS"}, "SF-295 CNS": {"tested_on": "SF-295 CNS"}, "CCRF-CEM leukemia": {"tested_on": "CCRF-CEM leukemia"}, "SN12C renal": {"tested_on": "SN12C renal"}, "UO-31 renal": {"tested_on": "UO-31 renal"}, "HCC-2998 colon": {"tested_on": "HCC-2998 colon"}}, "note": "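These data come from cells grown in 96-well plates and exposed to compound for 48 hours at five concentrations. TGI: total growth inhibition.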", "data": [{"smiles": "C/C(Nc1ccc(Cl)cc1Cl)=C1/CCOC1=O", "values": [{"measurement": "TGI", "setting": "SK-MEL-28 melanoma", "value": "> 100", "unit": "µM"}, {"measurement": "TGI", "setting": "NCI-H226 lung", "value": "> 100", "unit": "µM"}, {"measurement": "TGI", "setting": "RXF 393 renal", "value": 39.8, "unit": "µM"}, {"measurement": "TGI", "setting": "HOP-92 NSCLC", "value": 51.8, "unit": "µM"}, {"measurement": "TGI", "setting": "MALME-3M melanoma", "value": "> 100", "unit": "µM"}, {"measurement": "TGI", "setting": "MOLT-4 leukemia", "value": "> 100", "unit": "µM"}, {"measurement": "TGI", "setting": "OVCAR-3 ovarian", "value": "> 100", "unit": "µM"}, {"measurement": "TGI", "setting": "A498 renal", "value": "> 100", "unit": "µM"}, {"measurement": "TGI", "setting": "UACC-257 melanoma", "value": "> 100", "unit": "µM"}, {"measurement": "TGI", "setting": "HT29 colon", "value": "> 100", "unit": "µM"}, {"measurement": "TGI", "setting": "ACHN renal", "value": "> 100", "unit": "µM"}, {"measurement": "TGI", "setting": "HCT-15 colon", "value": "> 100", "unit": "µM"}, {"measurement": "TGI", "setting": "SNB-19 CNS", "value": 67.1, "unit": "µM"}, {"measurement": "TGI", "setting": "NCI-H460 lung", "value": "> 100", "unit": "µM"}, {"measurement": "TGI", "setting": "MDA-MB-435", "value": "> 100", "unit": "µM"}, {"measurement": "TGI", "setting": "KM12 colon", "value": "> 100", "unit": "µM"}, {"measurement": "TGI", "setting": "SF-539 CNS", "value": 89.9, "unit": "µM"}, {"measurement": "TGI", "setting": "EKVX NSCLC", "value": 73.9, "unit": "µM"}, {"measurement": "TGI", "setting": "COLO 205 colon", "value": "> 100", "unit": "µM"}, {"measurement": "TGI", "setting": "HS 578T breast", "value": 73.8, "unit": "µM"}, {"measurement": "TGI", "setting": "A549 NSCLC", "value": "> 100", "unit": "µM"}, {"measurement": "TGI", "setting": "T-47D breast", "value": "> 100", "unit": "µM"}, {"measurement": "TGI", "setting": "PC-3 prostate", "value": "> 100", "unit": "µM"}, {"measurement": "TGI", "setting": "DU-145 prostate", "value": "> 100", "unit": "µM"}, {"measurement": "TGI", "setting": "LOX IMVI melanoma", "value": "> 100", "unit": "µM"}, {"measurement": "TGI", "setting": "SW-620 colon", "value": "> 100", "unit": "µM"}, {"measurement": "TGI", "setting": "TK-10 renal", "value": "> 100", "unit": "µM"}, {"measurement": "TGI", "setting": "MCF7 breast", "value": "> 100", "unit": "µM"}, {"measurement": "TGI", "setting": "OVCAR-4 ovarian", "value": "> 100", "unit": "µM"}, {"measurement": "TGI", "setting": "SF-268 CNS", "value": 92.8, "unit": "µM"}, {"measurement": "TGI", "setting": "786-0 renal", "value": "> 100", "unit": "µM"}, {"measurement": "TGI", "setting": "OVCAR-8 ovarian", "value": "> 100", "unit": "µM"}, {"measurement": "TGI", "setting": "BT-549 breast", "value": 63.3, "unit": "µM"}, {"measurement": "TGI", "setting": "RPMI-8226 leukemia", "value": "> 100", "unit": "µM"}, {"measurement": "TGI", "setting": "HCT-116 colon", "value": "> 100", "unit": "µM"}, {"measurement": "TGI", "setting": "K-562 leukemia", "value": "> 100", "unit": "µM"}, {"measurement": "TGI", "setting": "IGROV1 ovarian", "value": "> 100", "unit": "µM"}, {"measurement": "TGI", "setting": "HL-60(TB) leukemia", "value": "> 100", "unit": "µM"}, {"measurement": "TGI", "setting": "U251 CNS", "value": 66.5, "unit": "µM"}, {"measurement": "TGI", "setting": "UACC-62 melanoma", "value": "> 100", "unit": "µM"}, {"measurement": "TGI", "setting": "NCI-H522 lung", "value": "> 100", "unit": "µM"}, {"measurement": "TGI", "setting": "NCI/ADR-RES ovarian", "value": "> 100", "unit": "µM"}, {"measurement": "TGI", "setting": "MDA-MB-231 breast", "value": 46.3, "unit": "µM"}, {"measurement": "TGI", "setting": "NCI-H23 lung", "value": "> 100", "unit": "µM"}, {"measurement": "TGI", "setting": "SR leukemia", "value": "> 100", "unit": "µM"}, {"measurement": "TGI", "setting": "HOP-62 NSCLC", "value": 70.8, "unit": "µM"}, {"measurement": "TGI", "setting": "SK-MEL-5 melanoma", "value": "> 100", "unit": "µM"}, {"measurement": "TGI", "setting": "SNB-75 CNS", "value": 66.1, "unit": "µM"}, {"measurement": "TGI", "setting": "SF-295 CNS", "value": 54, "unit": "µM"}, {"measurement": "TGI", "setting": "CCRF-CEM leukemia", "value": "> 100", "unit": "µM"}, {"measurement": "TGI", "setting": "SN12C renal", "value": "> 100", "unit": "µM"}, {"measurement": "TGI", "setting": "UO-31 renal", "value": "> 100", "unit": "µM"}, {"measurement": "TGI", "setting": "HCC-2998 colon", "value": "> 100", "unit": "µM"}]}]}
